Patent US10711036B2, “MALT1 inhibitors and uses thereof” (Cornell University, priority 2015, dated 2020)
Where a SMILES comes first, the peptide text is derived from it. [ ]: non-standard residue; d: D form. The star is where a group is joined. NMeV = CN[C@H](C(=O)O)C(C)C; Cbz = O=C(OCc1ccccc1)*; CH2F = FC*

Assays:
TMD8 = experiment: Maximum killing effect on TMD8; type: cell-based
Procedure: (§1) The maximum killing effects on cell-lines OCI-LY3, TMD8, and OCI-LY1 were also measured for select compounds at inhibitor concentration of 20 μM and 5 μM. TMD8 is another line of ABC type diffuse large-B cell lymphoma, while OCI-LY1 is a DLBCL line of the germinal center B-cell subtype.

OCI-LY1 = experiment: Maximum killing effect on OCI-LY1; type: cell-based
Procedure: as §1

OCI-LY3 [1] = experiment: Cell growth inhibition assay (CellTiter-Glo, 96 hours), OCI-LY3; type: cell-based, human; conditions: Homo sapiens, OCI-LY3 cells, treated at t=0 and t=48 hours, ATP luminescence
Procedure: DLBCL cell lines were grown in exponential growth conditions during the 96 hours of treatment. Cells were treated twice: at t=0 and t=48 hours, and cell viability was determined by ATP quantification using a luminescent method ([…]-GLO, Promega, Madison, Wis.). Cell viability in drug-treated cells was normalized to vehicle controls (fractional viability) and results are given as 1-fractional viability.
Experiments were Performed in Triplicate.

RelB cleavage = experiment: Western blot for RelB cleavage in OCI-LY3 cells; type: cell-based, human; conditions: OCI-LY3 cells pretreated with inhibitor, then 5 μM MG-132 for 2 hours
Procedure: FIG. 1A. Western blots for RelB and MALT1 after 30 minutes pretreatment with indicated doses of compounds or vehicle, followed by proteasome inhibitor MG-132 (5 μM) treatment for 2 hours in OCI-LY3. clev=cleavage product of RelB.
FIG. 1B. Western blots for RelB with indicated doses of compounds or vehicle in OCI-LY3.
Western blot: OCI-Ly3 cells (a line of human diffuse large B-cell lymphoma (ABC type)) were pre-treated for 30 minutes with indicated doses of MALT1 inhibitors followed by a 2-hour treatment with proteasome inhibitor MG-132 at 5 μM. Protein was then extracted in a PBS-based lysis buffer containing 1% NP-40. Equal amounts of total protein (50 to 75 μg) were separated on sodium dodecyl sulfate-polyacrylamide gel electrophoresis (SDS-PAGE), and electrotransferred onto nitrocellulose membranes. Membranes were incubated with primary antibodies (MALT1, from Santa Cruz Biotechnologies, Santa Cruz, Calif.; RELB from Cell Signaling, Danvers, Mass., and α-Tubulin from Sigma), followed by secondary antibodies conjugated to horseradish peroxidase, which were detected by chemiluminescence (Pierce, Thermo Scientific, Rockford, Ill.).
OCI-LY3 cells were pretreated with the an inhibitor at the desired concentration and subsequently treated with 5 μM MG-132, a proteasome inhibitor, for 2 hours.

OCI-LY3 [2] = experiment: Maximum killing effect on OCI-LY3; type: cell-based, human
Procedure: as §1

MALT1 [3] = target: T1, MALT1 (Homo sapiens (Human), UniProt Q9UDY8); experiment: Inhibition constants (Ki) for inhibition of MALT1; type: biochemical; conditions: 100 nM MALT1 used for the assay
Procedure: For exemplary compounds of the disclosure, Ki for inhibition of MALT1 was measured (Table E11). A concentration of 100 nM MALT1 was used for the assay.

MALT1 [4] = target: T1, MALT1; experiment: X-ray co-crystal structure of compound and MALT1; type: binding; conditions: 2.0 angstrom resolution
Procedure: Compound 101 was incubated with MALT1 to form a complex, and the complex was purified and crystallized for structure determination. X-ray diffraction data was collected, and the compound 101-MALT1 structure was solved in 2.0 angstrom resolution. […] Exemplary evidence for the formation of the covalent bond is the existence of continuous electron density from compound 101 to the Cys464 residue of MALT1. The electron density is 2Fo−Fc map contoured at 1.0 sigma.

T1 sequence (Q9UDY8 whole entry): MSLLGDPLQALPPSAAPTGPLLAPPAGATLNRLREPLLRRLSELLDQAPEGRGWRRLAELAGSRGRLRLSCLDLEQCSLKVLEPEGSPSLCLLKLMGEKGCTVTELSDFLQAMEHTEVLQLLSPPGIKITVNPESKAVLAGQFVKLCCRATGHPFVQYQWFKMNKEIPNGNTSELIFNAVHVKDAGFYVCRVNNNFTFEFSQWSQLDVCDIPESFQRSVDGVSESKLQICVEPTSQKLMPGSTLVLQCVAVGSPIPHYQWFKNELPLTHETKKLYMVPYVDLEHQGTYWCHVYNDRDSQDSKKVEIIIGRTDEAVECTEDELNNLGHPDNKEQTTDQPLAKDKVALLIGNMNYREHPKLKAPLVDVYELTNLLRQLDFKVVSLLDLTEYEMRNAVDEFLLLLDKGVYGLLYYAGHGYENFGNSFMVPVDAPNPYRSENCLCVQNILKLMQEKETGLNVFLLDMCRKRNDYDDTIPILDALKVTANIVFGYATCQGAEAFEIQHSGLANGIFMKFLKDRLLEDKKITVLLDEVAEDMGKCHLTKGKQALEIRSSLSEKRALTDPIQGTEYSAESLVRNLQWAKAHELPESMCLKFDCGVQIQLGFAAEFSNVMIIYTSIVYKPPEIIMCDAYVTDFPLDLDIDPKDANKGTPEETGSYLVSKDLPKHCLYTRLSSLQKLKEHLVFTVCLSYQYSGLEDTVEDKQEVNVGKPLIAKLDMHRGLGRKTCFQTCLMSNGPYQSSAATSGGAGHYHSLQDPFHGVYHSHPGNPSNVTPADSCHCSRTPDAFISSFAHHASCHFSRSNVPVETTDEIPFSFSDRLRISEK

GI50 (OCI-LY3 [1]) [nM]	Ki (MALT1 [3]) [nM]	Covalent bond to Cys464 of MALT1 in co-crystal structure (MALT1 [4])	Structure (SMILES)	Maximum killing effect (TMD8; TMD8, 20 μM) [%]	Maximum killing effect (OCI-LY1; OCI-LY1, 20 μM) [%]	Inhibition of RelB cleavage (Western blot) (RelB cleavage)	Maximum killing effect (OCI-LY3 [2]; OCI-LY3, 20 μM) [%]	Maximum killing effect (OCI-LY1; OCI-LY1, 5 μM) [%]	Maximum killing effect (OCI-LY3 [2]; OCI-LY3, 5 μM) [%]	Maximum killing effect (TMD8; TMD8, 5 μM) [%]
130	10		CC(C)[C@H](NC(=O)c1ccc(Br)cc1)C(=O)N1CCC[C@H]1C(=O)N[C@@H](CCCNC(=N)N)C(=O)CF [Compound 116]	76	19	inhibition of RelB cleavage	90			
> 20000	808		CC(C)[C@@H](C(=O)N1CCC[C@H]1C(=O)N[C@@H](CCCNC(=N)N)C(=O)CF)N(C)C(=O)OCc1ccccc1 [Compound 112] (Cbz-[NMeV]-Pro-Arg-CH2F)	66	2	inhibition of RelB cleavage	51	5	28	
8520	40	formation of a covalent bond	CC(C)[C@H](NC(=O)OCc1ccccc1)C(=O)N1CCC[C@H]1C(=O)N[C@@H](CCCNC(=N)N)C(=O)CF [Compound 101, Benzyl ((S)-1-((S)-2-(((S)-1-fluoro-6-guanidino-2-oxohexan-3-yl)carbamoyl)pyrrolidin-1-yl)-3-methyl-1-oxobutan-2-yl)carbamate 2,2,2-trifluoroacetate] (Cbz-Val-Pro-Arg-CH2F)	63	7		79	<0	70	50
